Assay results from patent US10391151B2, “Dilute surfactant or isolated surfactant protein solution for the reduction of surface tension in the lung” (The Trustees of the Stevens Institute of Technology, priority 2015, dated 2019).
Where no end group is shown, it is not given here. The star is where a group is joined. Biotin = O=C1N[C@H]2[C@H](CS[C@H]2CCCCC(=O)*)N1

B1: SP-B: surfactant protein B isolated from pulmonary alveolar proteinosis patients (protein, UniProt P07988 201-279, looked up)
Pulmonary …: FPIPLPYCWLCRALIKRIQAMIPKGALAVAVAQVCRVVPLVAGGICQCLAERYSVILLDTLLGRMLPQLVCRLVLRCSM
modifications: Pulmonary surfactant-associated protein B
notes: surfactant protein B isolated from pulmonary alveolar proteinosis patients

Key:
[1] = system: heterogeneously flooded region of the isolated, perfused adult rat lung; test: Ventilation injury score in the isolated, perfused adult rat lung (Method 2); details: for Injury score: flooding solution normal saline with 5% albumin, solutes at about the concentrations present in 1% SURVANTA solution, n=1 or 2/group (FIG. 2A)
Source text: Method 2. Ventilation ‘injury score’ in the adult rat lung. In the isolated, perfused adult rat lung, a surface alveolus is micropunctured and a non-fluorescent test solution is instilled. In experimental regions, a sufficiently large volume of liquid is instilled to generate a pattern of heterogeneous alveolar flooding; in control regions, a sufficiently small volume of liquid is instilled that the liquid spontaneously clears from the region, leaving behind a micropunctured-but-aerated region. Fluorescent dye, at a low concentration verified not to alter surface tension, is included in the perfusate. The region is imaged by confocal microscopy over a five minute baseline period at a constant transpulmonary pressure of 5 cm H2O. Five ventilation cycles are supplied to the lung, at 0.33 Hz with a positive end-expiratory pressure of 15 cm H2O and a tidal volume of 6 ml/kg body weight. The lung is then returned to a constant transpulmonary pressure of 5 cm H2O and imaged for 10 additional minutes. Alveolar liquid fluorescence at all time points is normalized by capillary fluorescence.
At baseline, alveolar liquid fluorescence (in flooded alveoli of experimental regions or in the liquid lining layer of control, aerated regions) is low and constant in all regions. Following ventilation, alveolar liquid fluorescence remains unchanged in aerated regions but continually increases with time in heterogeneously flooded regions. […] The increase above baseline in normalized alveolar liquid fluorescence at the last time point of the experiment is used as an injury score. The injury score, which indicates the rate of increase of normalized fluorescence following ventilation, correlates with surface tension of the test solution.
2. degree of ventilation induced injury in a region of the isolated, perfused adult rat lung in which surface alveoli have been flooded, in a heterogeneous fashion, with a test solution;

[2] = system: surface alveoli of the isolated adult rat lung; test: Surface tension determination in alveoli of the isolated adult rat lung (Method 1)
Procedure: Method 1. Surface tension determination in the adult rat lung. […] In flooded alveoli, the air-liquid interface forms a meniscus, at which surface tension is determined as follows. Alveolar air pressure is determined with a transducer at the trachea of the constantly-inflated lung. Alveolar liquid phase pressure is determined by servo-nulling pressure measurement. Meniscus radius of curvature is determined by confocal microscopy. Surface tension is calculated according to the Lapalce relation.
1. direct surface tension determination in surface alveoli of the isolated adult rat lung, which contains native lung surfactant, following alveolar instillation of a test solution;

[3] = 10 μM NaOH alone, without dextran, in the absence or presence of SURVANTA

Row | Molecule | Injury score [1] | further results
1 | sSP-Css-ion lock-B: a variant of sSP-Css-ion lock with a biotinylated N-terminal (Biotin-GIPSSPVHLKRLLIVVVVVELIVKVIVGALLMGL) | lower injury score | 
2 | fibrinogen |  | Facilitation of the surface activity of 1 vol % SURVANTA ([2]; 5 w/v % solute, adult rat lung, dextran negative charge imparted by 10 μM NaOH (FIGS. 1A and B)): facilitate
3 | [Na+].[OH-] [NaOH] |  | Effect on lung injury [1, 3]: no effect; Effect on surface tension [2, 3]: no effect
4 | CCCCCCCCCCCCCCCC(=O)OC[C@H](COP(=O)([O-])OCC[N+](C)(C)C)OC(=O)CCCCCCCCCCCCCCC [DPPC, dipalmitoylphosphatidylcholine, reference compound] | Only SP-C and sSP-C lower injury score | 
5 | B1 | Only SP-C and sSP-C lower injury score | 
